Values of other authors, collected in US8748497B2, “Optimized fluorocarbon emulsions for blood substitutes and other therapeutic uses” (Alliance Pharmaceutical Corp., priority 2006, dated 2014).

Conditions: components of FLUOSOL; cited from earlier work

| Structure (SMILES) | rate constant for RES elimination (k24) [day⁻¹] |
| --- | --- |
| FC1(F)C(F)(F)C(F)(F)C2(F)C(F)(F)C(F)(F)C(F)(F)C(F)(F)C2(F)C1(F)F (centres unmarked) [F-decalin, perfluorodecalin] | 0.10 |
| FC(F)(F)C(F)(F)C(F)(F)N(C(F)(F)C(F)(F)C(F)(F)F)C(F)(F)C(F)(F)C(F)(F)F [F-tripropylamine, perfluorotripropylamine] | 0.011 |
